From patent US7851484B2, “Certain chemical entities, compositions, and methods” (Cytokinetics, Inc., priority 2007, dated 2010)

Test system: SKM MF
Assay: SKM MF AC1.4: ATPase screen of skeletal sarcomeric proteins with PK/LDH coupled enzyme system
Type: biochemical
Parameters: AC1.4 Median: unit not given here
Settings: for SKM MF AC1.4 (μM): median value (footnote †)
Procedure: For example, test compounds can be assayed in a highly parallel fashion by using multiwell plates by placing the compounds either individually in wells or testing them in mixtures. Assay components including the target protein complex, coupling enzymes and substrates, and ATP can then be added to the wells and the absorbance or fluorescence of each well of the plate can be measured with a plate reader.
In some embodiments, the method uses a 384 well plate format and a 25 μL reaction volume. A pyruvate kinase/lactate dehydrogenase coupled enzyme system (Huang T G and Hackney D D. (1994) J Biol Chem 269(23):16493-501) can be used to measure the rate of ATP hydrolysis in each well. As will be appreciated by those in the art, the assay components are added in buffers and reagents. The incubation periods can be optimized to give adequate detection signals over the background. The assay can be done in real time giving the kinetics of ATP hydrolysis which increases the signal to noise ratio of the assay.
Just prior to screening, the actin, tropomyosin, and troponin complex are mixed together in the desired ratio (e.g., 7:1:1) to achieve maximal calcium regulation of the actin filament. The screen is conducted at a pCa=6.5. This calcium concentration is in the physiological range during muscle contraction.
To measure the generation of ADP during the reaction, a pyruvate kinase/lactate dehydrogenase/NADH coupled enzyme system (PK/LDH) is added to the actin. The myosin is kept separately. The plates are read in real time so that kinetic curves are obtained. These compounds are in DMSO and were already spotted onto the bottoms of 384 well plates at 10 to 40 μg/ml final concentration.

Compound	AC1.4 Median	SKM MF AC1.4 [µM]	SKM MF AC1.4 (μM)
OC[C@@H](C1CCCCC1)n1c(O)nc2ncc(Cl)cc21 [1-((1R)-1-cyclohexyl-2-hydroxyethyl)-6-chloroimidazo[4,5-b]pyridin-2-ol]	37.7104	–	–
CCC(CC)n1c(O)nc2ncc(Cl)c(/C=N/OCC(C)C)c21 [7-[(1E)-2-(2-methylpropoxy)-2-azavinyl]-6-chloro-1-(ethylpropyl)imidazo[4,5-b]pyridin-2-ol]	11.4532	–	–
CCC(CC)n1c(O)nc2ncc(Cl)c(/C=N/OCc3ccccc3)c21 [7-[(1E)-2-(phenylmethoxy)-2-azavinyl]-6-chloro-1-(ethylpropyl)imidazo[4,5-b]pyridin-2-ol]	39.7159	–	–
CC(C)(C)n1c(O)nc2ncc(Cl)cc21 [1-(tert-butyl)-6-chloroimidazo[4,5-b]pyridin-2-ol]	9.8213	–	–
CC[C@H](CN=[N+]=[N-])n1c(O)nc2ncc(Cl)cc21 [1-((1R)-3-diazo-1-ethyl-3-azaprop-3-enyl)-6-chloroimidazo[4,5-b]pyridin-2-ol]	11.2261	–	–
[1-(ethylpropyl)-6-ethynyl-2-hydroxyimidazo[4,5-b]pyridin-7-yl]-N-methylcarboxamide	6.7023	–	–
C=CCc1c(Cl)cnc2nc(O)n(C(CC)CC)c12 [6-chloro-1-(ethylpropyl)-7-prop-2-enylimidazo[4,5-b]pyridin-2-ol]	3.6218	–	–
CC[C@H](CCO)n1c(O)nc2ncc(Cl)cc21 [1-((1R)-1-ethyl-3-hydroxypropyl)-6-chloroimidazo[4,5-b]pyridin-2-ol]	7.7806	–	–
CCC(CC)n1c(O)nc2ncc(Cl)c(/C=N\OC(C)(C)C)c21 [7-[(1Z)-2-(tert-butoxy)-2-azavinyl]-6-chloro-1-(ethylpropyl)imidazo[4,5-b]pyridin-2-ol]	19.5317	–	–
CC(C)(Cc1ccccc1)n1c(O)nc2ncc(Cl)cc21 [1-(1,1-dimethyl-2-phenylethyl)-6-chloroimidazo[4,5-b]pyridin-2-ol]	8.2080	–	–

Continued, values first:

AC1.4 Median	SKM MF AC1.4 [µM]	SKM MF AC1.4 (μM)	Compound
27.8274	–	–	1-(ethylpropyl)-6-prop-1-ynylimidazo[4,5-b]pyridin-2-ol
1.6866	0.82	–	CCC(CC)n1c(O)nc2ncc(Cl)cc21 [6-chloro-1-(pentan-3-yl)-1H-imidazo[4,5-b]pyridin-2-ol]
0.1667	–	0.1563^† μM	C#Cc1cnc2nc(O)n(C(CC)CC)c2c1 [6-ethynyl-1-(pentan-3-yl)-1H-imidazo[4,5-b]pyridin-2-ol]
13.3270	–	–	7-[(dimethylamino)methyl]-6-chloro-1-(ethylpropyl)benzimidazol-2-ol
10.2517	5.7	–	CCC(CC)n1c(O)nc2ncc(C)cc21 [6-methyl-1-(pentan-3-yl)-1H-imidazo[4,5-b]pyridin-2-ol]
45.5421	–	–	COCCCCn1c(O)nc2ncc(Cl)cc21 [6-chloro-1-[(methoxymethyl)propyl]imidazo[4,5-b]pyridin-2-ol]
12.9347	–	12.9347^† μM	CCC(CC)n1c(O)nc2ncc(F)cc21 [6-fluoro-1-(pentan-3-yl)-1H-imidazo[4,5-b]pyridin-2-ol]
10.9895	–	–	Oc1nc2ncc(Cl)cc2n1[C@H](Cc1ccccn1)CN1CCOCC1 [1-[(1R)-2-morpholin-4-yl-1-(2-pyridylmethyl)ethyl]-6-chloroimidazo[4,5-b]pyridin-2-ol]
25.2370	–	25.237^† μM	CCC(CC)Cn1c(O)nc2ncc(Cl)cc21 [6-chloro-1-(2-ethylbutyl)-1H-imidazo[4,5-b]pyridin-2-ol]
3.5145	–	–	6-((1Z)prop-1-enyl)-1-(ethylpropyl)imidazo[4,5-b]pyridin-2-ol
10.1217	–	–	1-(ethylpropyl)-6-(1-methylvinyl)imidazo[4,5-b]pyridin-2-ol
5.6431	–	–	CC(C)C[C@H](CO)n1c(O)nc2ncc(Cl)cc21 [1-[(1R)-2-hydroxy-1-(2-methylpropyl)ethyl]-6-chloroimidazo[4,5-b]pyridin-2-ol]
